Test: Study KAR5585-101 Part 1 (SAD): plasma pharmacokinetics after a single oral dose of KAR5585, fasting and fed (incl. dose proportionality and food effect)
Conditions: for half-life / Tmax / AUC(0-t) / AUC / AUC(0-inf) / concentration at 12 h / Cmax: human, plasma, po; for AUC: AUC0-tau; for AUC(0-inf): AUC0-∞
[1] = 1200 mg, KAR5417 after 1200 mg KAR5585 single oral, fasted, Cohort 5, Geo. Mean
[2] = 1200 mg, KAR5417 after 1200 mg KAR5585 single oral, fasted, Cohort 5, Mean
[3] = 2000 mg, KAR5417 after 2000 mg KAR5585 single oral, fasted, Cohort 6, Geo. Mean
[4] = 2000 mg, KAR5417 after 2000 mg KAR5585 single oral, fasted, Cohort 6, Mean

Experimental: Food effect was to be evaluated in Part 1, Period 2. Part 2 was permitted to begin before Part 1 was completed and, in each part, the data from each dose Cohort were to be reviewed for safety before the next dose Cohort was enrolled.
Part 1 had 6 Cohorts of 12 subjects each (for a total of 72 subjects) and Part 2 had 4 Cohorts of 12 subjects each (for a total of 48 subjects). In Part 1, the 12 subjects in Cohort 3 (400 mg)were studied twice, once under fasting conditions (Period 1) and once under fed conditions (Period 2) for food-effect assessment.
Pharmacokinetic data were to be summarized descriptively.

## Nc1nc(O[C@H](c2ccc(Cl)cc2-c2ccccc2)C(F)(F)F)cc(N2CCC3(CC2)CN[C@H](C(=O)O)C3)n1 [KAR5417, (S)-8-(2-amino-6-((R)-1-(5-chloro-[1,1T-biphenyl]-2-yl)-2,2,2-trifluoroeth-oxy)pyrimidin-4-yl)-2,8-diazaspiro[4.5]decane-3-carboxylic acid]
700 mg, t1/2, KAR5417 after 700 mg KAR5585 single oral, fasted, Cohort 4, Mean
  half-life: 13.5 h
700 mg, tmax, KAR5417 after 700 mg KAR5585 single oral, fasted, Cohort 4, Median
  Tmax: 4 h
1200 mg, AUC0-12, KAR5417 after 1200 mg KAR5585 single oral, fasted, Cohort 5, Geo. Mean
  AUC(0-t): 4580 ng·h/mL
1200 mg, AUC0-12, KAR5417 after 1200 mg KAR5585 single oral, fasted, Cohort 5, Mean
  AUC(0-t): 5350 ng·h/mL
1200 mg, AUC0-24, KAR5417 after 1200 mg KAR5585 single oral, fasted, Cohort 5, Geo. Mean
  AUC(0-t): 5810 ng·h/mL
1200 mg, AUC0-24, KAR5417 after 1200 mg KAR5585 single oral, fasted, Cohort 5, Mean
  AUC(0-t): 6790 ng·h/mL
[1]
  AUC: 6580 ng·h/mL
  AUC(0-inf): 6880 ng·h/mL
  Cmax: 764 ng/mL
[2]
  AUC: 7700 ng·h/mL
  AUC(0-inf): 7970 ng·h/mL
  Cmax: 896 ng/mL
1200 mg, C12, KAR5417 after 1200 mg KAR5585 single oral, fasted, Cohort 5, Geo. Mean
  concentration at 12 h: 175 ng/mL
1200 mg, C12, KAR5417 after 1200 mg KAR5585 single oral, fasted, Cohort 5, Mean
  concentration at 12 h: 213 ng/mL
1200 mg, Plasma AUC0-96, KAR5417 in plasma, 1200 mg KAR5585 single oral dose, mean
  AUC(0-t): 7910 ng·h/mL
1200 mg, t1/2, KAR5417 after 1200 mg KAR5585 single oral, fasted, Cohort 5, Geo. Mean
  half-life: 14 h
1200 mg, t1/2, KAR5417 after 1200 mg KAR5585 single oral, fasted, Cohort 5, Mean
  half-life: 14.9 h
1200 mg, tmax, KAR5417 after 1200 mg KAR5585 single oral, fasted, Cohort 5, Median
  Tmax: 6 h
2000 mg, AUC0-12, KAR5417 after 2000 mg KAR5585 single oral, fasted, Cohort 6, Geo. Mean
  AUC(0-t): 6550 ng·h/mL
2000 mg, AUC0-12, KAR5417 after 2000 mg KAR5585 single oral, fasted, Cohort 6, Mean
  AUC(0-t): 6910 ng·h/mL
2000 mg, AUC0-24, KAR5417 after 2000 mg KAR5585 single oral, fasted, Cohort 6, Geo. Mean
  AUC(0-t): 8520 ng·h/mL
2000 mg, AUC0-24, KAR5417 after 2000 mg KAR5585 single oral, fasted, Cohort 6, Mean
  AUC(0-t): 9080 ng·h/mL
[3]
  AUC: 9880 ng·h/mL
  AUC(0-inf): 10200 ng·h/mL
  Cmax: 1030 ng/mL
[4]
  AUC: 10600 ng·h/mL
  AUC(0-inf): 10900 ng·h/mL
  Cmax: 1080 ng/mL
2000 mg, C12, KAR5417 after 2000 mg KAR5585 single oral, fasted, Cohort 6, Geo. Mean
  concentration at 12 h: 280 ng/mL
2000 mg, C12, KAR5417 after 2000 mg KAR5585 single oral, fasted, Cohort 6, Mean
  concentration at 12 h: 354 ng/mL
2000 mg, Plasma AUC0-96, KAR5417 in plasma, 2000 mg KAR5585 single oral dose, mean
  AUC(0-t): 10700 ng·h/mL
2000 mg, t1/2, KAR5417 after 2000 mg KAR5585 single oral, fasted, Cohort 6, Geo. Mean
  half-life: 22.1 h
2000 mg, t1/2, KAR5417 after 2000 mg KAR5585 single oral, fasted, Cohort 6, Mean
  half-life: 22.6 h
2000 mg, tmax, KAR5417 after 2000 mg KAR5585 single oral, fasted, Cohort 6, Median
  Tmax: 5 h
Median tmax, range across cohorts, single oral 100-2000 mg KAR5585, fasting cohorts
  Tmax: 3 to 6 h
postdose, single oral KAR5585
  time by which all subjects had measurable concentrations: ≤ 0.25 h
Single 100 mg KAR5585, fasting
  time concentrations remained above the LLOQ: up to 12 hours
Single 200 mg KAR5585, fasting
  time concentrations remained above the LLOQ: ≤ 24 h
Single 400 mg KAR5585, fasting
  time concentrations remained above the LLOQ / measurable: ≤ 36 h
Single 700 mg KAR5585, fasting
  time concentrations remained above the LLOQ: ≤ 48 h
Single 1200 mg KAR5585, fasting
  time concentrations remained above the LLOQ: ≤ 48 h
Single 2000 mg KAR5585, fasting
  time concentrations remained above the LLOQ: ≤ 72 h
Single dose range 100 to 2000 mg KAR5585, fasting
  dose proportionality of AUC0-inf and Cmax (power model, 95% CI of slope): dose proportionality was concluded
Single oral KAR5585, fasting
  plasma concentrations of KAR5417 relative to plasma concentrations of KAR5585: approximately 10 fold

Reference: patent publication US20240041877A1, “DOSAGE REGIME AND METHOD FOR TREATING PULMONARY ARTERIAL HYPERTENSION” (Altavant Sciences GmbH, priority 2019, published 2024)
